{
  "source": "patent US10538443B2",
  "about": "“Method of degradation and inactivation of antibiotics in water by immobilized enzymes onto functionalized supports” (Luxembourg Institute of Science and Technology (LIST), priority 2014, dated 2020)",
  "molecules": {"B1": {"name": "NDM-1: New-Dehli metallo-β-lactamase 1, K. pneumoniae gene produced in E. coli BL21 2D3, used free or immobilized on Kaldnes biochips (protein, UniProt C7C422 29-270, looked up)", "Metallo-beta-lactamase type 2": "GEIRPTIGQQMETGDQRFGDLVFRQLAPNVWQHTSYLDMPGFGAVASNGLIVRDGGRVLVVDTAWTDDQTAQILNWIKQEINLPVALAVVTHAHQDKMGGMDALHAAGIATYANALSNQLAPQEGMVAAQHSLTFAANGWVEPATAPNFGPLKVFYPGPGHTSDNITVGIDGTDIAFGGCLIKDSKAKSLGNLGDADTEHYAASARAFGAAFPKASMIVMSHSAPDSRAAITHTARMADKLR"}},
  "key": {"[1]": {"assay": "Autolysis of antibiotic after 1 hour", "assay_type": "physicochemical", "details": "antibiotic 100 μg·ml^−1, deionized water, HEPES 12.5 mM, room temperature", "protocol": "(§1) Degradation experiments have been performed, using a concentration of free NDM-1 enzyme of 300 μg·ml^−1 in an aqueous medium comprising deionized water and HEPES 12.5 mM. Antibiotic is added at final concentration of 100 μg·ml^−1 (final volume: 1 mL). Degradation assay are performed under agitation of 100 rpm at room temperature during 1 hour. UV absorbance measurements are achieved to determine the evolution of the concentration of the antibiotics in the medium."}, "[2]": {"target": "T1, NDM-1 (Klebsiella pneumoniae, UniProt C7C422)", "T1 construct": "His tag (inferred from the HisTrap FF purification and the pOPINF vector; no tag is printed as such); made in house; host or cells: Escherichia coli BL21 2D3", "assay_type": "biochemical, K. pneumoniae", "details": "free NDM-1 300 μg·ml^−1, antibiotic 100 μg·ml^−1, final volume 1 mL, deionized water, HEPES 12.5 mM, room temperature, 100 rpm", "protocol": "The production of protein performed as described by Green V. L. et al. (Acta Crystallogr. 2011, F67, 1160-1164) with few modifications: An additional step of freezing is added before cell lysis with French press. The NDM-1 isolation and purification are only performed with HisTrap FF column (GE Healthcare). Three washes in Amicon® Ultra-4 Centrifugal Filter Units 3,000 NMWL (1000×g for 15 min) allow to remove excess imidazole. Enzymes are then re-suspended in PBS.\nas §1"}, "[3]": {"tested_on": "rat hepatoma cell line H4IIE.Luc", "assay": "Cytotoxicity test, Cell Viability Assay AlamarBlue", "assay_type": "cell-based", "details": "amoxicillin 80 μg·mL^−1; T0 (before metabolization by enzymes)", "protocol": "(§2) For this, the tests were carried out on the degradation media before (T0) and after metabolization by enzymes immobilized on PGMA and DOPA functionalized Kaldnes after 30 min, 1 h and 24 h of contact.\n(§3) The tests are performed with the maximum volume of test solution that can be provided and defined by the standards cited earlier. The results are expressed as a percentage of growth inhibition for algae and Daphnia test, as percentage of light emission inhibition for the Microtox test and as percentage of cell viability inhibition for cytotoxicity tests."}, "[4]": {"tested_on": "Selenastrum capricornutum", "assay": "Acute toxicity test on microalgae (ISO 8692: 2012), growth inhibition", "assay_type": "cell-based", "details": "90 μg·mL^−1", "protocol": "as §2, §3"}, "[5]": {"tested_on": "Vibrio fischeri", "details": "0 min, 80 μg·mL^−1", "protocol": "as §2, §3"}, "[6]": {"tested_on": "Daphnia magna Straus", "assay": "Daphnia acute toxicity test (ISO 6341: 2012)", "assay_type": "in vivo", "details": "amoxicillin 90 μg·mL^−1; T0 (before metabolization by enzymes)", "protocol": "as §2, §3"}, "[7]": {"assay": "Degradation of amoxicillin (100 μg/ml) in filtered tap water with HEPES by immobilized or free enzyme, UV absorbance every 24 hours", "assay_type": "biochemical", "protocol": "Once the Kaldnes carriers have been activated according to the above protocol, the enzymatic activity is measured. Two antibiotics present in an aqueous medium have been tested.\nA sample of tap water, prealably filtered on a syringe filter unit (disposable pore size of 0.22 μm) and with HEPES (12.5 mM), and the antibiotics at a concentration of 100 μg/ml.\nFor comparison purposes, degradation of the antibiotic with the free enzyme will be tested. The sample of tap water, prealably filtered on a syringe filter unit (disposable pore size of 0.22 μm) and with HEPES (12.5 mM), and the antibiotics at a concentration of 100 μg·ml^−1, is prepared.\nUV absorbance measurements are achieved to determine the evolution of the concentration of the antibiotics. […] The absorbance, and the thus the concentration, is determined every 24 hours."}, "[8]": {"assay": "Storage of the Kaldnes carriers at 4° C., length of preservation of activity", "assay_type": "physicochemical", "protocol": "The biofunctionalized Kaldnes carriers, after being dried, have been kept in the fridge at 4° C. Antibiotics degradation tests were performed onto the carriers to measure the activity."}, "[9]": {"details": "Kaldnes biochips, PGMA based layer, Tween 20 (5%), enzyme 1.985 mg"}, "[10]": {"details": "Kaldnes biochips, dopamine as layer precursor, no Tween 20, enzyme 1.985 mg"}, "[11]": {"details": "enzyme in its free form 2 mg, no Tween 20"}},
  "note": "Positions of bridges follow the written chain, without caps; N, C: chain ends. Non-standard residues stand in square brackets, D forms with d. Residues, ends and D or L forms follow the SMILES beside them. *: point of attachment. Ileψ(thiazoline)Cys = CC[C@H](C)[C@H](N)C1=N[C@H](C(=O)*)CS1; dOrn = NCCC[C@@H](N)C(=O)O",
  "data": [
    {"molecule": "CC[C@H]1OC(=O)C[C@@H](O)[C@H](C)[C@@H](O[C@@H]2O[C@H](C)[C@@H](O[C@H]3C[C@@](C)(O)[C@@H](O)[C@H](C)O3)[C@H](N(C)C)[C@H]2O)[C@@H](CC=O)C[C@@H](C)C(=O)/C=C/C(C)=C/[C@@H]1CO[C@@H]1O[C@H](C)[C@@H](O)[C@@H](OC)[C@H]1OC", "note": "[tylosine]", "values": [
      {"measurement": "Autolysis of antibiotic after 1 hour", "setting": "[1]", "value": 0.01, "unit": "µg/mL"},
      {"measurement": "degraded amount after 1 hour", "setting": "[2]", "value": "7.4 ± 1.1", "unit": "µg"}
    ]},
    {"molecule": "CC1(C)S[C@@H]2[C@H](NC(=O)[C@H](N)c3ccc(O)cc3)C(=O)N2[C@H]1C(=O)O", "note": "[amoxicillin]", "values": [
      {"measurement": "Percentage of inhibition, Cell Viability Assay", "setting": "[3]", "value": "19 ± 5", "unit": "%"},
      {"measurement": "Percentage of inhibition, Alga test", "setting": "[4]; 0 min", "value": "55 ± 6", "unit": "%"},
      {"measurement": "Percentage of inhibition, Alga test", "setting": "[4]; 24 h", "value": 0, "unit": "%"},
      {"measurement": "Percentage of inhibition, Microtox", "setting": "[5]", "value": "41 ± 12", "unit": "%"},
      {"measurement": "Percentage of inhibition, Daphnia Test", "setting": "[6]", "value": "56 ± 4", "unit": "%"},
      {"measurement": "Autolysis of antibiotic after 1 hour", "setting": "[1]", "value": 0, "unit": "µg/mL"},
      {"measurement": "degraded amount after 1 hour", "setting": "[2]", "value": "10 ± 2", "unit": "µg"}
    ]},
    {"molecule": "CC[C@H](C)[C@H](N)C1=N[C@H](C(=O)N[C@@H](CC(C)C)C(=O)N[C@H](CCC(=O)O)C(=O)N[C@H](C(=O)N[C@H]2CCCCNC(=O)[C@H](CC(N)=O)NC(=O)[C@@H](CC(=O)O)NC(=O)[C@H](Cc3cnc[nH]3)NC(=O)[C@@H](Cc3ccccc3)NC(=O)[C@H]([C@@H](C)CC)NC(=O)[C@@H](CCCN)NC2=O)[C@@H](C)CC)CS1", "note": "[bacitracin] ({Ileψ(thiazoline)Cys}-L[dE]IK[dOrn]I[dF]H[dD]N; lactam 4-C)", "values": [
      {"measurement": "Autolysis of antibiotic after 1 hour", "setting": "[1]", "value": 0, "unit": "µg/mL"},
      {"measurement": "degraded amount after 1 hour", "setting": "[2]", "value": "5 ± 0.8", "unit": "µg"}
    ]},
    {"molecule": "CCC[C@@H]1C[C@@H](C(=O)N[C@@H]([C@H]2O[C@H](SC)[C@H](O)[C@@H](O)[C@H]2O)[C@@H](C)O)N(C)C1", "note": "[lincomycin]", "values": [
      {"measurement": "Autolysis of antibiotic after 1 hour", "setting": "[1]", "value": 0.01, "unit": "µg/mL"},
      {"measurement": "degraded amount after 1 hour", "setting": "[2]", "value": "5 ± 1.5", "unit": "µg"}
    ]},
    {"molecule": "COc1cc(Cc2cnc(N)nc2N)cc(OC)c1OC", "note": "[trimethoprime]", "values": [
      {"measurement": "Autolysis of antibiotic after 1 hour", "setting": "[1]", "value": 0.01, "unit": "µg/mL"},
      {"measurement": "degraded amount after 1 hour", "setting": "[2]", "value": "2.5 ± 0.95", "unit": "µg"}
    ]},
    {"molecule": "CC[C@H]1OC(=O)[C@H](C)[C@@H](O[C@H]2C[C@@](C)(OC)[C@@H](O)[C@H](C)O2)[C@H](C)[C@@H](O[C@@H]2O[C@H](C)C[C@H](N(C)C)[C@H]2O)[C@](C)(O)C[C@@H](C)C(=O)[C@H](C)[C@@H](O)[C@]1(C)O", "note": "[erythromycin]", "values": [
      {"measurement": "Autolysis of antibiotic after 1 hour", "setting": "[1]", "value": 0, "unit": "µg/mL"},
      {"measurement": "degraded amount after 1 hour", "setting": "[2]", "value": "6.8 ± 2.3", "unit": "µg"}
    ]},
    {"molecule": "Cc1cc(NS(=O)(=O)c2ccc(N)cc2)no1", "note": "[sulfamethoxazole]", "values": [
      {"measurement": "Autolysis of antibiotic after 1 hour", "setting": "[1]", "value": 0, "unit": "µg/mL"},
      {"measurement": "degraded amount after 1 hour", "setting": "[2]", "value": "3.2 ± 0.8", "unit": "µg"}
    ]},
    {"molecule": "B1", "values": [
      {"measurement": "Amount of degraded amoxicillin", "setting": "[7]; [9]", "value": "3502 ± 191", "unit": "µg"},
      {"measurement": "Duration of activity", "setting": "[7]; [9]", "value": 22, "unit": "days"},
      {"measurement": "Amount of degraded amoxicillin", "setting": "[7]; [10]", "value": "3021 ± 51", "unit": "µg"},
      {"measurement": "Duration of activity", "setting": "[7]; [10]", "value": 10, "unit": "days"},
      {"measurement": "amount of amoxicillin degraded, immobilized versus free form", "setting": "[7]; Kaldnes carrier, Table V", "value": "about 8 times"},
      {"measurement": "Amount of degraded amoxicillin", "setting": "[7]; [11]", "value": "390 ± 45", "unit": "µg"},
      {"measurement": "Duration of activity", "setting": "[7]; [11]", "value": 4, "unit": "days"},
      {"measurement": "Length of preservation", "setting": "[8]; stored as Kaldnes + PGMA", "value": 1, "unit": "month"},
      {"measurement": "Length of preservation", "setting": "[8]; stored as Kaldnes + PGMA + enzyme", "value": 2, "unit": "months"},
      {"measurement": "Length of preservation", "setting": "[8]; stored as Kaldnes + PGMA + enzyme + Tween 20", "value": 2, "unit": "weeks"},
      {"measurement": "Length of preservation", "setting": "[8]; stored as Kaldnes + dopamine", "value": 3, "unit": "weeks"},
      {"measurement": "Length of preservation", "setting": "[8]; stored as Kaldnes + dopamine + enzyme", "value": 1, "unit": "month"},
      {"measurement": "Length of preservation", "setting": "[8]; stored as Kaldnes + dopamine + enzyme + Tween 20", "value": 2, "unit": "weeks"}
    ]}
  ]
}
